9 compounds from patent USRE37886E1, “1-(1,2-Disubstituted piperidinyl)-4-substituted piperazine derivatives” (Janssen Pharmaceuticals, N.V., priority 1995, dated 2002) can be followed below.

This test relates to substance P induced plasma extravasation. Description: Antagonism of substance P induced plasma extravasation in guinea-pigs. The format is in vivo. As to conditions: lowest active dose, female guinea-pigs; for LAD nose: compound 1 hour prior to substance P (2 mg/kg, femoral artery), blue colouring of nose 10 minutes after challenge; for LAD conjunctiva / LAD forepaws / LAD trachea / LAD urinary bladder: compound 1 hour prior to substance P; for LAD conjunctiva: blue colouring of conjunctiva 10 minutes after challenge; for LAD forepaws: blue colouring of forepaws 10 minutes after challenge; for LAD trachea: blue colouring of trachea 30 minutes after challenge; for LAD urinary bladder: blue colouring of urinary bladder 30 minutes after challenge. From the text: The compounds of the present invention are potent inhibitors of neurokinin-mediated effects, in particular those mediated via the NK1 receptor, and may therefore be described as tachykinin antagonists, especially as substance P antagonists, as indicated in vitro by the antagonism of substance P induced relaxation of pig coronary arteries which is described hereinafter. The binding affinity of the present compounds for the human, guinea-pig and gerbil neurokinin receptors may be determined in vitro in a receptor binding test using ^3H-substance-P as radioligand. The subject compounds also show substance-P antagonistic activity in vivo as may be evidenced by, for instance, the antagonism of substance P-induced plasma extravasation in guinea-pigs, or the antagonism of drug-induced emesis in ferrets (Watson et al., Br. J. Pharmacol. 115, 84-94, 1995).
Antagonism of substance P induced plasma extravasation in guinea-pigs
Plasma extravasation was induced by injection of substance P (2 mg/kg) in the femoral artery of female guinea-pigs. Evans Blue dye (30 mg/kg) was injected simultaneously. The test compound or solvent was administered 1 hour prior to substance P injection. 10 minutes after challenge, the aminals were checked for blue colouring (a direct measure for plasma extravasation) of the nose, the forepaws, and the conjectiva. 30 minutes after challenge, the animals were sacrificed by CO2 gas inhalation and checked for blue colouring of the trachea and the urinary bladder. […]

The compound `O=C(c1cc(C(F)(F)F)cc(C(F)(F)F)c1)N1CCC(N2CCN(c3nc4ccccc4[nH]3)CC2)CC1Cc1ccccc1` (racemic) [Compound 40] returned an LAD nose of 10.0 mg/kg, an LAD conjunctiva of 10.0 mg/kg, an LAD forepaws of 10.0 mg/kg and an LAD trachea above 40 mg/kg. The compound further had an LAD urinary bladder above 40 mg/kg.
In turn, `CC(=O)NCC(c1ccccc1)N1CCN(C2CCN(C(=O)c3cc(C(F)(F)F)cc(C(F)(F)F)c3)C(Cc3ccccc3)C2)CC1` (racemic) [Compound 82] registered an LAD nose of 2.50 mg/kg, an LAD conjunctiva of 2.50 mg/kg, an LAD forepaws of 2.50 mg/kg and an LAD trachea of 10.0 mg/kg. The same compound showed an LAD urinary bladder above 40 mg/kg.
As for `CC(=O)NCC(c1ccccc1)N1CCN(C2CCN(C(=O)c3cc(C(F)(F)F)cc(C(F)(F)F)c3)C(Cc3ccccc3)C2)CC1` (racemic) [Compound 83], the LAD nose is reported as 0.63 mg/kg, the LAD conjunctiva worked out at 2.50 mg/kg, the LAD forepaws came to 0.63 mg/kg and the LAD trachea is recorded as above 40 mg/kg. The compound further registered an LAD urinary bladder of 0.63 mg/kg.
With `Cc1cccc(C)c1NC(=O)CCN1CCN(C2CCN(C(=O)c3cc(C(F)(F)F)cc(C(F)(F)F)c3)C(Cc3ccccc3)C2)CC1.O=C(O)C=CC(=O)O.O=C(O)C=CC(=O)O` (racemic) [Compound 103], the LAD nose is 2.50 mg/kg, the LAD conjunctiva came out at 2.50 mg/kg, the LAD forepaws worked out at 2.50 mg/kg and the LAD trachea amounted to 10.0 mg/kg. In addition, the LAD urinary bladder was 2.50 mg/kg.
`CCn1nnn(CCN2CCN(C3CCN(C(=O)c4cc(C(F)(F)F)cc(C(F)(F)F)c4)C(Cc4ccccc4)C3)CC2)c1=O.O=C(O)C=CC(=O)O.O=C(O)C=CC(=O)O` (racemic) [Compound 96] gave an LAD nose of 10.0 mg/kg, an LAD conjunctiva of 10.0 mg/kg, an LAD forepaws of 10.0 mg/kg and an LAD trachea above 40 mg/kg. Moreover, the LAD urinary bladder is reported as above 40 mg/kg.
Compound `Cc1cc(C)cc(C(=O)N2CCC(N3CCN(C(c4ccccc4)c4ccccc4)CC3)CC2Cc2ccccc2)c1` (racemic) [Compound 12] came in with an LAD nose above 40.0 mg/kg, an LAD conjunctiva above 40.0 mg/kg, an LAD forepaws above 40.0 mg/kg and an LAD trachea above 40 mg/kg. This compound also returned an LAD urinary bladder of 40.0 mg/kg.
`O=C(O)C=CC(=O)O.O=C(O)C=CC(=O)O.O=C(c1cc(C(F)(F)F)cc(C(F)(F)F)c1)N1CCC(N2CCN(CCc3ccccc3)CC2)CC1Cc1ccccc1` (racemic) [Compound 90] yielded an LAD nose of 10.0 mg/kg, an LAD conjunctiva of 10.0 mg/kg, an LAD forepaws of 10.0 mg/kg and an LAD trachea of 10.0 mg/kg. Besides, the LAD urinary bladder is listed as above 40 mg/kg.
In turn, `O=C(c1ccco1)N1CCN(C2CCN(C(=O)c3cc(C(F)(F)F)cc(C(F)(F)F)c3)C(Cc3ccccc3)C2)CC1` (stereo not drawn) [Compound 21] had an LAD nose of 10.0 mg/kg, an LAD conjunctiva of 10.0 mg/kg, an LAD forepaws of 10.0 mg/kg and an LAD trachea above 40 mg/kg. The compound also yielded an LAD urinary bladder of 10.0 mg/kg.
`Cc1cc(C)cc(NC(=O)CN2CCN(C3CCN(C(=O)c4cc(C(F)(F)F)cc(C(F)(F)F)c4)C(Cc4ccccc4)C3)CC2)c1` (racemic) [Compound 47]: the LAD nose was determined as 40.0 mg/kg, the LAD conjunctiva is 40.0 mg/kg, the LAD forepaws is 40.0 mg/kg and the LAD trachea is above 40 mg/kg. The LAD urinary bladder is reported as above 40 mg/kg.
